Blank lines part the entries; values can stand above or below the compound they belong to. Active and inactive are the calls of the source. The calls are words filed in the database; no cut-off is given here.
Experiments:
[1] = target: Baculoviral IAP repeat-containing protein 2 (Homo sapiens, UniProt Q13490); assay: Binding affinity to BIR3 domain of cIAP1 by fluorescence polarization assay
[2] = tested on: SK-OV-3; assay: cells; details: Homo sapiens, SK-OV-3, 96 h
[3] = tested on: MDA-MB-231; assay: cells; details: Homo sapiens, MDA-MB-231, 96 h
[4] = tested on: SK-OV-3; assay: Induction of apoptosis in human SKOV3 cells assessed as caspase 8 cleavage at 3 nM after 24 hrs by Western blot analysis; type: functional, cell-based
[5] = tested on: MDA-MB-231; assay: Induction of apoptosis in human MDA-MB-231 cells assessed as caspase 3 cleavage at 3 nM after 24 hrs by Western blot analysis; type: functional, cell-based
[6] = tested on: MDA-MB-231; assay: Induction of apoptosis in human MDA-MB-231 cells assessed as caspase 8 cleavage at 3 nM after 24 hrs by Western blot analysis; type: functional, cell-based
[7] = tested on: SK-OV-3; assay: Induction of apoptosis in human SKOV3 cells assessed as caspase 3 cleavage at 3 nM after 24 hrs by Western blot analysis; type: functional, cell-based
[8] = tested on: SK-OV-3; assay: Induction of apoptosis in human SKOV3 cells assessed as PARP cleavage at 3 nM after 24 hrs by Western blot analysis; type: functional, cell-based
[9] = tested on: MDA-MB-231; assay: Induction of apoptosis in human MDA-MB-231 cells assessed as PARP cleavage at 3 nM after 24 hrs by Western blot analysis; type: functional, cell-based
[10] = tested on: SK-OV-3; assay: Induction of apoptosis in human SKOV3 cells assessed as caspase 8 cleavage at 10 nM after 24 hrs by Western blot analysis; type: functional, cell-based
[11] = tested on: SK-OV-3; assay: Induction of apoptosis in human SKOV3 cells assessed as PARP cleavage at 300 nM after 24 hrs by Western blot analysis; type: functional, cell-based
[12] = tested on: MDA-MB-231; assay: Induction of apoptosis in human MDA-MB-231 cells assessed as caspase 3 cleavage at 10 nM after 24 hrs by Western blot analysis; type: functional, cell-based
[13] = tested on: MDA-MB-231; assay: Induction of apoptosis in human MDA-MB-231 cells assessed as PARP cleavage at 300 nM after 24 hrs by Western blot analysis; type: functional, cell-based
[14] = tested on: MDA-MB-231; assay: Induction of apoptosis in human MDA-MB-231 cells assessed as caspase 8 cleavage at 10 nM after 24 hrs by Western blot analysis; type: functional, cell-based
[15] = tested on: SK-OV-3; assay: Induction of apoptosis in human SKOV3 cells assessed as caspase 3 cleavage at 10 nM after 24 hrs by Western blot analysis; type: functional, cell-based

Structure (SMILES): CN[C@@H](C)C(=O)N[C@H]1CCCC[C@H]2CC[C@@H](C(=O)N[C@@H](c3ccccc3)c3cn(CCCCCCCCn4cc([C@@H](NC(=O)[C@@H]5CC[C@@H]6CCCC[C@H](NC(=O)[C@H](C)NC)C(=O)N65)c5ccccc5)nn4)nn3)N2C1=O
IC50 [1]: 2.8 nM
Ki [1]: < 0.5 nM

Structure (SMILES): CN[C@@H](C)C(=O)N[C@H]1CCCC[C@H]2CC[C@@H](C(=O)N[C@@H](c3ccccc3)c3cn(CCCCc4ccc(CCCCn5cc([C@@H](NC(=O)[C@@H]6CC[C@@H]7CCCC[C@H](NC(=O)[C@H](C)NC)C(=O)N76)c6ccccc6)nn5)cc4)nn3)N2C1=O
Ki [1]: 0.5 nM
IC50 [2]: 16 nM
IC50 [3]: 6.8 nM

IC50 [2]: 4.7 nM
IC50 [3]: 4.7 nM
Structure (SMILES): CN[C@@H](C)C(=O)N[C@H]1CN(C(=O)CCCCOCCCCC(=O)N2CC[C@H]3CC[C@@H](C(=O)NC(c4ccccc4)c4ccccc4)N3C(=O)[C@@H](NC(=O)[C@H](C)NC)C2)CC[C@H]2CC[C@@H](C(=O)NC(c3ccccc3)c3ccccc3)N2C1=O

Structure (SMILES): CN[C@@H](C)C(=O)N[C@H]1CN(C(=O)CCCCCCC(=O)N2CC[C@H]3CC[C@@H](C(=O)NC(c4ccccc4)c4ccccc4)N3C(=O)[C@@H](NC(=O)[C@H](C)NC)C2)CC[C@H]2CC[C@@H](C(=O)NC(c3ccccc3)c3ccccc3)N2C1=O
IC50 [2]: 11 nM
IC50 [3]: 17.2 nM

Structure (SMILES): CN[C@@H](C)C(=O)N[C@H]1CN(C(=O)CCCCCCCCC(=O)N2CC[C@H]3CC[C@@H](C(=O)NC(c4ccccc4)c4ccccc4)N3C(=O)[C@@H](NC(=O)[C@H](C)NC)C2)CC[C@H]2CC[C@@H](C(=O)NC(c3ccccc3)c3ccccc3)N2C1=O
Activity [4]: Active
Activity [5]: Active
Activity [6]: Active
IC50 [2]: 3.1 nM
Activity [7]: Active
Activity [8]: Active
IC50 [3]: 7.5 nM
Activity [9]: Active

IC50 [2]: 180 nM
IC50 [3]: 50.8 nM
Structure (SMILES): CN[C@@H](C)C(=O)N[C@H]1CN(C(=O)c2ccc(C(=O)N3CC[C@H]4CC[C@@H](C(=O)NC(c5ccccc5)c5ccccc5)N4C(=O)[C@@H](NC(=O)[C@H](C)NC)C3)cc2)CC[C@H]2CC[C@@H](C(=O)NC(c3ccccc3)c3ccccc3)N2C1=O

IC50 [2]: 250 nM
IC50 [3]: 115 nM
Structure (SMILES): CN[C@@H](C)C(=O)N[C@H]1CN(C(C)=O)CC[C@H]2CC[C@@H](C(=O)NC(c3ccccc3)c3ccccc3)N2C1=O
Activity [10]: Active
Activity [11]: Active
Activity [12]: Active
Activity [13]: Active
Activity [14]: Active
Activity [15]: Active

Structure (SMILES): CN[C@@H](C)C(=O)N[C@H]1CN(C(=O)CCCCc2ccc(CCCCC(=O)N3CC[C@H]4CC[C@@H](C(=O)NC(c5ccccc5)c5ccccc5)N4C(=O)[C@@H](NC(=O)[C@H](C)NC)C3)cc2)CC[C@H]2CC[C@@H](C(=O)NC(c3ccccc3)c3ccccc3)N2C1=O
Activity [4]: Active
Activity [5]: Active
Activity [6]: Active
IC50 [2]: 9.6 nM
Activity [7]: Active
Activity [8]: Active
IC50 [3]: 3.4 nM
Activity [9]: Active

Structure (SMILES): CN[C@@H](C)C(=O)N[C@H]1CN(C(=O)CCCCCCCCCCC(=O)N2CC[C@H]3CC[C@@H](C(=O)NC(c4ccccc4)c4ccccc4)N3C(=O)[C@@H](NC(=O)[C@H](C)NC)C2)CC[C@H]2CC[C@@H](C(=O)NC(c3ccccc3)c3ccccc3)N2C1=O
IC50 [2]: 12 nM
IC50 [3]: 10.6 nM

IC50 [2]: 27 nM
IC50 [3]: 13.8 nM
Structure (SMILES): CN[C@@H](C)C(=O)N[C@H]1CN(C(=O)CCC(=O)N2CC[C@H]3CC[C@@H](C(=O)NC(c4ccccc4)c4ccccc4)N3C(=O)[C@@H](NC(=O)[C@H](C)NC)C2)CC[C@H]2CC[C@@H](C(=O)NC(c3ccccc3)c3ccccc3)N2C1=O

IC50 [2]: 9.9 nM
IC50 [3]: 14.8 nM
Structure (SMILES): CN[C@@H](C)C(=O)N[C@H]1CN(C(=O)CCCCC(=O)N2CC[C@H]3CC[C@@H](C(=O)NC(c4ccccc4)c4ccccc4)N3C(=O)[C@@H](NC(=O)[C@H](C)NC)C2)CC[C@H]2CC[C@@H](C(=O)NC(c3ccccc3)c3ccccc3)N2C1=O

From ChEMBL document CHEMBL2157891 (J Med Chem, 2012)
